Reference: paper PMC9764071 (Acta Pharmaceutica Sinica. B, 2022)

How the values were obtained:
[1] = tested on: A375 cells; assay: Cytotoxicity evaluation by Real-Time Cell Analyzing; type: cell-based; settings: 20 μmol/L of compound; RTCA; versus control group
[2] = target: PD-1/PD-L1 interaction (Homo sapiens, UniProt Q9NZQ7); assay: TR-FRET assay of PD-1/PD-L1 interaction inhibition; type: binding
[3] = tested on: CD8, IFN-γ and GzmB expression; assay: Immunohistochemistry; type: in vivo, mice; settings: IHC of tumor tissues; Fig. S8
[4] = target: PD-1/PD-L1 interaction on MDA-MB-231 cells (Homo sapiens, UniProt Q9NZQ7); type: cell-based; settings: P39 0–200 nmol/L, 24 h; immunostaining
Chain of PD-1/PD-L1 interaction on MDA-MB-231 cells (Q9NZQ7 19-290): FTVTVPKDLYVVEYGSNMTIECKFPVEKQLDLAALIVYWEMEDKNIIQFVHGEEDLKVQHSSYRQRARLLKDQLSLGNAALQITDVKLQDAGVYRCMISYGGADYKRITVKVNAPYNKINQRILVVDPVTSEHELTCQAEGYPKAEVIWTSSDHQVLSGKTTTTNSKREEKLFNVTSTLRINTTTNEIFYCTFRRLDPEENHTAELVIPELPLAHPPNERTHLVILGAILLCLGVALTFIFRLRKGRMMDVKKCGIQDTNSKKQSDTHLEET

[5] = tested on: MC38 tumor cells; assay: In vivo antitumor activity, MC38 mouse model; design: species or system C57BL/6 mice
[6] = target: PD-1/PD-L1 interaction on H460 cells (Homo sapiens, UniProt Q9NZQ7); type: cell-based
Chain of PD-1/PD-L1 interaction on H460 cells (Q9NZQ7 19-290): as above

[7] = tested on: T cells in TILs; assay: Flow cytometry of tumor infiltrating lymphocytes, MC38 model; type: in vivo, C57BL/6 mice
[8] = tested on: Lewis lung carcinoma (LLC) cells overexpressing hPD-L1 (LLC-hPD-L1); assay: In vivo antitumor activity, humanized LLC-hPD-L1 mouse model; design: species or system hPD-1-knockin C57BL/6 mice
[9] = Acute toxicity test; type: in vivo, ICR mice
[10] = tested on: PD-1/PD-L1 interaction, H358 cells; assay: PD-1/PD-L1 blockade bioassay; type: cell-based; settings: P39-treated H358 cells versus untreated cells; concentration-dependent
[11] = tested on: Lewis lung carcinoma (LLC) cells overexpressing hPD-L1 (LLC-hPD-L1); assay: In vivo antitumor activity on Balb/c-nude mice; settings: P39 4, 10 and 25 mg/kg
[12] = tested on: H460 cells; assay: PBMCs-mediated tumor cell-killing assay; type: cell-based, human; settings: P39 100 or 200 nmol/L, 24 h

Chain of PD-1/PD-L1 interaction (Q9NZQ7 19-238 limits assumed): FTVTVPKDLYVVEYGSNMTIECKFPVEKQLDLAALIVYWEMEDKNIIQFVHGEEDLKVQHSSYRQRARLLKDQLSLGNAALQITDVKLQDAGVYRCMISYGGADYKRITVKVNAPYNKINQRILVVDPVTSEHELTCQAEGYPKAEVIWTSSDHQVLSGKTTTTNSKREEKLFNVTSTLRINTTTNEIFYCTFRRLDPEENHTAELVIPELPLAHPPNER

Row | Structure (SMILES) | IC50 [2] [nM] | other results
1 | Cc1c(-c2ccccc2)cccc1N1C(=O)c2cc(CNCCO)c(OCc3ccccc3C#N)cc2C1=O [P3] | 171 | cytotoxicity, real-time growth of A375 cells [1]: essentially non-toxic to A375 cells
2 | Cc1c(-c2ccccc2)cccc1N1C(=O)c2cc(CNCCO)c(OCc3ccc(C#N)cc3)cc2C1=O [P4] | 153 | cytotoxicity, real-time growth of A375 cells [1]: essentially non-toxic to A375 cells
3 | Cc1c(-c2ccccc2)cccc1N1C(=O)c2cc(CNCCO)c(OCc3ccccc3)cc2C1=O [P5] | 216 | 
4 | Cc1c(-c2ccccc2)cccc1N1C(=O)c2cc(CNCCO)c(OCc3ccc(C(C)C)cc3)cc2C1=O [P6] | 921 | 
5 | Cc1c(-c2ccccc2)cccc1N1C(=O)c2ccc(OCc3cccc(C#N)c3)c(CNC3CCOCC3)c2C1=O [P9] | 1140 | 
6 | Cc1c(-c2ccccc2)cccc1N1C(=O)c2ccc(OCc3cccc(C#N)c3)c(CN3CCC[C@H]3C(=O)O)c2C1=O [P10] | 4380 | 
7 | N#Cc1cccc(COc2cc3c(cc2CN2CCCC[C@H]2C(=O)O)C(=O)N(c2cccc(-c4ccccc4)c2C#N)C3=O)c1 [P12] | 100 | 
8 | N#Cc1cccc(COc2cc3c(cc2CNC2CCOCC2)C(=O)N(c2cccc(-c4ccccc4)c2Cl)C3=O)c1 [P13] | 39.3 | 
9 | N#Cc1cccc(COc2cc3c(cc2CN2CCC[C@H]2C(=O)O)C(=O)N(c2cccc(-c4ccccc4)c2Cl)C3=O)c1 [P14] | 22.1 | 
10 | N#Cc1cccc(COc2cc3c(cc2CNC2CCOCC2)C(=O)N(c2cccc(-c4ccccc4)c2F)C3=O)c1 [P15] | 58.7 | cytotoxicity, real-time growth of A375 cells [1]: essentially non-toxic to A375 cells
11 | N#Cc1cccc(COc2cc3c(cc2CN2CCC[C@H]2C(=O)O)C(=O)N(c2cccc(-c4ccccc4)c2F)C3=O)c1 [P16] | 31.6 | 
12 | Cc1c(-c2ccccc2)cccc1N1C(=O)c2cc(CN3CCC[C@H]3CO)c(OCc3cccc(C#N)c3)cc2C1=O [P22] | 251 | 
13 | Cc1c(-c2ccccc2)cccc1N1C(=O)c2cc(CN3CCOCC3)c(OCc3cccc(C#N)c3)cc2C1=O [P24] | 738 | 
14 | Cc1c(-c2ccccc2)cccc1N1C(=O)c2cc(CN(C)CC(=O)OC(C)(C)C)c(OCc3cccc(C#N)c3)cc2C1=O [P34] | > 10000 | 
15 | Cc1c(-c2ccccc2)cccc1N1C(=O)c2cc(CN[C@H](C(=O)O)C(C)O)c(OCc3cccc(C#N)c3)cc2C1=O (some centres unmarked) [P39] | 8.9 | expression of CD8, IFN-γ, and GzmB [3]: increased expression; binding capacity of PD-1 to MDA-MB-231 cells [4]: significantly decreased in a dose-dependent manner; tumor volume growth inhibition ([5]; 10 mg/kg i.p. once daily, 4 weeks): 54.9%; tumor volume growth inhibition ([5]; 25 mg/kg i.p. once daily, 4 weeks): 68.3%; final tumor weight ([5]; 10 and 25 mg/kg groups versus control group): significantly decreased; weight loss or death of mice during treatment ([5]; 10 and 25 mg/kg i.p. once daily, 4 weeks): No weight loss or death of mice; inhibitory activity on PD-1 binding to tumor cells compared to BMS202 ([6]; 200 nmol/L, Fig. 4A and B): stronger inhibitory activity compared to the positive compound BMS202; binding capacity of PD-1 to H460 cells ([6]; P39 0–200 nmol/L, 24 h, flow cytometry and immunostaining): significantly decreased in a dose-dependent manner; population of CD4+ T cells in the tumor tissue ([7]; P39-treated mice versus control group, Fig. S6C): did not change compared to the control group; ratio of CD8+ to CD3+ T cells in the tumor ([7]; P39-treated mice, Fig. S6B and 6E): greatly increased; tumor inhibitory effect compared with BMS202 (10 mg/kg) ([8]; P39 25 mg/kg): much better activity; tumor inhibition rate ([8]; high dose, 25 mg/kg, 12 days of administration): 79.0%; inhibition rate of tumor growth ([8]; low dose, 10 mg/kg): 66.2%; cytotoxicity, real-time growth of A375 cells [1]: essentially non-toxic to A375 cells; LD50 at 14 days ([9]; ICR, mouse, in vivo, po): > 5000 mg/kg; mortality and body weight loss ([9]; oral single dose 5000 mg/kg, observed two weeks): no mortality and obvious body weight loss; transcriptional-mediated bioluminescent signal [10]: significant increase; ability to clear tumor cells in immunodeficient mice [11]: no ability to clear tumor cells; sensitivity of tumor cells to T cell killing (activated human PBMCs) [12]: greatly increased
16 | Cc1c(-c2ccccc2)cccc1N1C(=O)c2cc(CN[C@@H](Cc3ccccc3)C(=O)OC(C)(C)C)c(OCc3cccc(C#N)c3)cc2C1=O [P40] | 1690 | 

Continued, in another order:

Row | IC50 [2] [nM] | Structure (SMILES) | other results
17 | 45.4 | Cc1c(-c2ccccc2)cccc1N1C(=O)c2cc(CNCCO)c(OCc3cccc(C#N)c3)cc2C1=O [P1] | cytotoxicity, real-time growth of A375 cells [1]: essentially non-toxic to A375 cells
18 | 45.6 | Cc1c(-c2ccccc2)cccc1N1C(=O)c2cc(CNC3CCOCC3)c(OCc3cccc(C#N)c3)cc2C1=O [P7] | 
19 | 52.1 | Cc1c(-c2ccccc2)cccc1N1C(=O)c2cc(CN3CCC[C@H]3C(=O)O)c(OCc3cccc(C#N)c3)cc2C1=O [P8] | cytotoxicity, real-time growth of A375 cells [1]: essentially non-toxic to A375 cells
20 | 117 | Cc1c(-c2ccccc2)cccc1N1C(=O)c2cc(CN3CCCC[C@H]3C(=O)O)c(OCc3cccc(C#N)c3)cc2C1=O [P11] | 
21 | 79.1 | CC(=O)NCCNCc1cc2c(cc1OCc1cccc(C#N)c1)C(=O)N(c1cccc(-c3ccccc3)c1C)C2=O [P18] | 
22 | 150 | Cc1c(-c2ccccc2)cccc1N1C(=O)c2cc(CN(C)CCO)c(OCc3cccc(C#N)c3)cc2C1=O [P19] | 
23 | 395 | Cc1c(-c2ccccc2)cccc1N1C(=O)c2cc(CNCCNC(=O)OC(C)(C)C)c(OCc3cccc(C#N)c3)cc2C1=O [P20] | 
24 | 189 | Cc1c(-c2ccccc2)cccc1N1C(=O)c2cc(CNCCN(C)C)c(OCc3cccc(C#N)c3)cc2C1=O [P21] | 
25 | 216 | Cc1c(-c2ccccc2)cccc1N1C(=O)c2cc(CN3CC[C@@H](O)C3)c(OCc3cccc(C#N)c3)cc2C1=O [P23] | 
26 | 187 | Cc1c(-c2ccccc2)cccc1N1C(=O)c2cc(CN3CC(O)C3)c(OCc3cccc(C#N)c3)cc2C1=O [P25] | 
27 | 564 | Cc1c(-c2ccccc2)cccc1N1C(=O)c2cc(CN3CCC[C@H]3C(N)=O)c(OCc3cccc(C#N)c3)cc2C1=O [P26] | 
28 | 42.4 | Cc1c(-c2ccccc2)cccc1N1C(=O)c2cc(CN3CC(C(=O)O)C3)c(OCc3cccc(C#N)c3)cc2C1=O [P27] | 
29 | 607 | Cc1c(-c2ccccc2)cccc1N1C(=O)c2cc(CN[C@@H](CO)C(=O)OC(C)(C)C)c(OCc3cccc(C#N)c3)cc2C1=O [P29] | 
30 | 14 | Cc1c(-c2ccccc2)cccc1N1C(=O)c2cc(CN[C@@H](CO)C(=O)O)c(OCc3cccc(C#N)c3)cc2C1=O [P30] | cytotoxicity, real-time growth of A375 cells [1]: essentially non-toxic to A375 cells
31 | 836 | COC(=O)CNCc1cc2c(cc1OCc1cccc(C#N)c1)C(=O)N(c1cccc(-c3ccccc3)c1C)C2=O [P31] | 
32 | 1160 | Cc1c(-c2ccccc2)cccc1N1C(=O)c2cc(CNCC(=O)OC(C)(C)C)c(OCc3cccc(C#N)c3)cc2C1=O [P32] | 
33 | 13.3 | Cc1c(-c2ccccc2)cccc1N1C(=O)c2cc(CNCC(=O)O)c(OCc3cccc(C#N)c3)cc2C1=O [P33] | cytotoxicity, real-time growth of A375 cells [1]: essentially non-toxic to A375 cells
34 | 46.6 | Cc1c(-c2ccccc2)cccc1N1C(=O)c2cc(CN(C)CC(=O)O)c(OCc3cccc(C#N)c3)cc2C1=O [P35] | 
35 | 1670 | Cc1c(-c2ccccc2)cccc1N1C(=O)c2cc(CN[C@@H](C)C(=O)OC(C)(C)C)c(OCc3cccc(C#N)c3)cc2C1=O [P36] | 
36 | 11.6 | Cc1c(-c2ccccc2)cccc1N1C(=O)c2cc(CN[C@@H](C)C(=O)O)c(OCc3cccc(C#N)c3)cc2C1=O [P37] | cytotoxicity, real-time growth of A375 cells [1]: essentially non-toxic to A375 cells
37 | > 10000 | Cc1c(-c2ccccc2)cccc1N1C(=O)c2cc(CN[C@H](C(=O)OC(C)(C)C)C(C)O)c(OCc3cccc(C#N)c3)cc2C1=O (some centres unmarked) [P38] | 
38 | 527 | Cc1c(-c2ccccc2)cccc1N1C(=O)c2cc(CN[C@@H](Cc3ccccc3)C(=O)O)c(OCc3cccc(C#N)c3)cc2C1=O [P41] | 
